The values that follow come from patent US20080234188A1, “Antimicrobial Peptides” (The Hospital for Sick Children, priority 2001, published 2008).

The test system of data set [1] is Staphylococcus epidermidis (C621). Type of data set: cell-based. Particulars: for MIC C621 (active/inactive): Table 2, class symbols. The text has this: (§1) The bacterial strains used were E. coli C498, E. coli C500, Escherichia coli UB1005 and its antibiotic supersusceptible derivative DC2 (22); a clinical isolate of Staphylococcus epidermidis (C621); coryneform bacterial strain Corynebacterium xerosis (C875); and E. coli ATCC 25922, Staphylococcus aureus ATCC 25923, Enterococcus faecalis ATCC 29212, Bacillus subtilis ATCC 6633 and Pseudomonas aeruginosa ATCC 27853, all from American Type Culture Collection.
(§2) Peptide antibacterial activity was assessed by the method of R. Hancock et al. (Wu & Hancock (1999), J. Biol. Chem., v. 274, pp. 29-35). Test strains of bacteria from Mueller Hinton agar (MHA) plates were inoculated into 5 ml Mueller Hinton Broth (MHB) in tubes and grown overnight at 37° C. on a shaker (180 rpm). Serial dilutions of test peptides (at 10 times the required test concentrations) were made in 0.01% acetic acid, 0.2% BSA, in polypropylene or coated glass tubes as follows: the test peptide was (a) dissolved in distilled water at 20 times the required maximum concentration (enough final volume for all tests to be performed on a given day); (b) diluted into an equal volume of 0.02% acetic acid, 0.4% BSA to give 10 times the required maximum concentration; (c) serial doubling dilutions were performed in 0.01% acetic acid, 0.2% BSA to provide serial dilutions of peptides at 10 times the required test concentrations, e.g., 640, 320, 160, . . . 2.5 μg/ml. (No deleterious effects of long-term storage of peptides in these media have been detected). Overnight bacterial cultures were diluted in MHB to give 2−7×10^5 colony forming units/ml. Bacterial suspension (100 μl) was dispensed in each well; controls without bacteria were maintained in parallel. To each well was added 11 μl of 10× test peptide and plates were incubated at 37° C. for 18-24 hours, and checked again at 40-48 hours. Plates were read visually and at 600 nm in a microplate reader (Molecular Devices).
(§3) were synthesized. The antibacterial activity of these peptides was determined against both Gram-positive bacteria ([…], Corynebacterium xerosis) and Gram-negative bacteria (various strains of E. coli). The results are shown in Table 2, along with the average hydrophobicity of each peptide, calculated as described herein.
(§4) A further number of the peptides of the invention were tested for antimicrobial activity against a range of Gram-positive and Gram-negative bacteria by the assay described immediately before Example 1.

The subject of data set [2] is Corynebacterium xerosis (C875). Type of data set: cell-based. The following applies: for MIC C875 (active/inactive): Table 2, class symbols.
Text: as §1, §2, §3, §4

The test system of data set [3] is C498: E. coli, wild type strain. Type of data set: cell-based. Particulars: for MIC C498: wild type strain; for MIC C498 (active/inactive): Table 2, class symbols.
Text: as §1, §2, §3

Data set [4] deals with C500: E. coli, antibiotic strain. In kind it is cell-based. Particulars: for MIC C500: antibiotic strain; for MIC C500 (active/inactive): Table 2, class symbols.
Text: as §1, §2, §3

Data set [5] can be described thus: Hydrophobicity (hydropathy) from reverse-phase HPLC retention scale. The following applies: for Mean residue hydropathy of X-residue peptide / Hydropathy: Table 1; for Hydropathy: of the X-residue, from HPLC retention of KKAAAXAAAAAXAAWAAXAAAKKKK-amide peptides; for Average Hydrophobicity of Core Sequence: Table 2, calculated from Table 1 hydropathy values; for Mean Core segment Hydrophobicity: Table 3. In kind it is physicochemical. The arrangement: key to Average Hydrophobicity of Core Sequence / Mean Core segment Hydrophobicity: arithmetic average of Table 1 hydropathy values of constituent residues; key to Hydropathy: hydropathy scale from HPLC retention times of model peptides (Table 1). The text has this: The “hydrophobicity value” of an amino acid residue means the hydrophobicity value of that residue as shown in Table 1 or as calculated by the method described herein.
The “hydrophobicity value” of an amino acid sequence or peptide means the arithmetic average of the individual hydrophobicity values of the constituent amino acid residues of the sequence.
Various hydrophobicity scales for proteins and amino acids have been described in the literature but the inventors have established the hydrophobicity scale of Table 1 based on the retention times on HPLC of a series of hydrophobic model peptides, as described in Liu and Deber (1998), Biopolymers (Peptide Science), v. 47, pp. 41-62).
The hydrophobicity value shown for each amino acid in Table 1 as “hydropathy” may be used as the hydrophobicity value for that amino acid in any peptide whose hydrophobicity value has to be calculated. The “average hydrophobicity” of a peptide containing amino acids shown in Table 1 is calculated by determining the arithmetic average of the Table 1 “hydropathy” values for the constituent amino acids of the sequence.
Peptides in accordance with the invention may also include other amino acids. For an amino acid not included in Table 1, the hydrophobicity value may be determined by the same method as described herein for obtaining the values of Table 1. For example, a peptide such as KKAAAXAAAAAXAAXAAXAAAKKKK-amide (Sequence ID No: 1) may be synthesized, where X is the amino acid whose hydrophobicity value is to be determined, and the retention time of the peptide on HPLC is determined, as described in the Examples. Similar peptides where X is Lys or Phe are also prepared and their HPLC retention times determined. The retention time, Rx, is converted to the hydropathy value H for the selected amino acid using the equation
H=(10×ΔtRx-Lys/ΔtRPhe-Lys)−5.00
where ΔtRx-Lys=retention time difference in minutes between Rx and the retention time of the most hydrophilic peptide tested (X=Lys) and where ΔtRPhe-Lys=retention time difference in minutes between the most hydrophobic peptide tested (X=Phe) and the most hydrophilic (X=Lys).
The retention time of each peptide was determined on a C4 reversed-phase column (4.6×250 mm, 300 A pore size, 10 μ particle size). Equal amounts of each peptide were injected into the column and eluted at a flow rate of 1 mL/min, utilizing a linear AB gradient (2% B/min), where buffer A was 0.1% TFA/ddH2O, and buffer B was 0.1% TFA/acetonitrile. The retention time of each peptide reported here was the average of triplicate measurements.

The next data set concerns E. coli UB1005. In kind it is cell-based, Escherichia coli. Particulars: UB1005.
Text: as §1, §2, §4

In a further data set the test system is E. coli DC2. Briefly: Assay of antibacterial activity (MIC), E. coli DC2. Type of data set: cell-based, Escherichia coli. The following applies: Table 3; Gram-negative.
Text: as §1, §2, §4

SMILES strings stand for the structures. Values after ≈ are worked out from the molar mass of the structure shown. Where a SMILES comes first, the peptide text is derived from it. Some results are limits rather than exact numbers.

With `CC(C)C[C@H](NC(=O)[C@H](C)NC(=O)[C@H](C)NC(=O)[C@H](C)NC(=O)[C@H](CCCCN)NC(=O)[C@@H](N)CCCCN)C(=O)N[C@@H](C)C(=O)N[C@@H](C)C(=O)N[C@@H](C)C(=O)N[C@@H](C)C(=O)N[C@@H](C)C(=O)N[C@@H](CC(C)C)C(=O)N[C@@H](C)C(=O)N[C@@H](C)C(=O)N[C@@H](Cc1c[nH]c2ccccc12)C(=O)N[C@@H](C)C(=O)N[C@@H](C)C(=O)N[C@@H](CC(C)C)C(=O)N[C@@H](C)C(=O)N[C@@H](C)C(=O)N[C@@H](C)C(=O)N[C@@H](CCCCN)C(=O)N[C@@H](CCCCN)C(=O)N[C@@H](CCCCN)C(=O)N[C@@H](CCCCN)C(N)=O` [Peptide L25] (H-KKAAALAAAAALAAWAALAAAKKKK-NH2; N-terminus assumed), in data set [1], the “MIC C621” value was determined as 1.5 µM (≈ 3.57 µg/mL) and the “MIC S. epidermidis C621” value was found to be 2 µM (≈ 4.76 µg/mL). Besides, in data set [2], the “MIC C875” value is 0.2 µM (≈ 0.476 µg/mL) and the “MIC C. xerosis C875” value was less than 0.25 µM. Also, in data set [3], the “MIC C498” value came out at 6 µM (≈ 14.3 µg/mL). Besides, the “MIC C500” value in data set [4] came out at 6 µM (≈ 14.3 µg/mL). In addition, in data set [5], the “Mean residue hydropathy of X-residue peptide” value (from here on “Mean residue hydropathy”) is on record as 1.14, the Hydropathy is listed as 4.76, the “Average Hydrophobicity of Core Sequence” value is listed as 1.14 and the “Mean Core segment Hydrophobicity” value is recorded as 1.14. In addition, in the data set on E. coli UB1005, the “MIC E. coli UB1005” value turned out to be 32 µM (≈ 76.1 µg/mL). In the data set with E. coli DC2, the “MIC E. coli DC2” value is 16 µM (≈ 38 µg/mL).

As for `C[C@H](NC(=O)[C@H](C)NC(=O)[C@H](C)NC(=O)[C@H](Cc1ccc(O)cc1)NC(=O)[C@H](C)NC(=O)[C@H](C)NC(=O)[C@H](C)NC(=O)[C@H](CCCCN)NC(=O)[C@@H](N)CCCCN)C(=O)N[C@@H](C)C(=O)N[C@@H](C)C(=O)N[C@@H](Cc1ccc(O)cc1)C(=O)N[C@@H](C)C(=O)N[C@@H](C)C(=O)N[C@@H](Cc1c[nH]c2ccccc12)C(=O)N[C@@H](C)C(=O)N[C@@H](C)C(=O)N[C@@H](Cc1ccc(O)cc1)C(=O)N[C@@H](C)C(=O)N[C@@H](C)C(=O)N[C@@H](C)C(=O)N[C@@H](CCCCN)C(=O)N[C@@H](CCCCN)C(=O)N[C@@H](CCCCN)C(=O)N[C@@H](CCCCN)C(N)=O` [Peptide Y25] (H-KKAAAYAAAAAYAAWAAYAAAKKKK-NH2; N-terminus assumed), in data set [1], the “MIC C621” value amounted to 3 µM (≈ 7.58 µg/mL) and the “MIC S. epidermidis C621” value amounted to 8 µM (≈ 20.2 µg/mL). In data set [2], the “MIC C875” value was found to be 0.2 µM (≈ 0.506 µg/mL) and the “MIC C. xerosis C875” value is less than 0.25 µM. For the same compound, the “MIC C498” value in data set [3] is 11 µM (≈ 27.8 µg/mL). For the same compound, the “MIC C500” value in data set [4] worked out at 5 µM (≈ 12.6 µg/mL). In addition, in data set [5], the “Mean residue hydropathy” value worked out at 0.71, the Hydropathy is 2.00, the “Average Hydrophobicity of Core Sequence” value was 0.71 and the “Mean Core segment Hydrophobicity” value came to 0.71. Moreover, in the data set on E. coli UB1005, the “MIC E. coli UB1005” value was determined as 32 µM (≈ 80.9 µg/mL). Further, the “MIC E. coli DC2” value in the data set with E. coli DC2 is 16 µM (≈ 40.4 µg/mL).

For the compound `CC(C)C[C@H](NC(=O)[C@H](C)NC(=O)[C@H](C)NC(=O)[C@H](C)NC(=O)[C@H](CCCCN)NC(=O)[C@@H](N)CCCCN)C(=O)N[C@@H](C)C(=O)N[C@@H](C)C(=O)N[C@@H](C)C(=O)N[C@@H](C)C(=O)N[C@@H](C)C(=O)N[C@@H](CS)C(=O)N[C@@H](C)C(=O)N[C@@H](C)C(=O)N[C@@H](Cc1c[nH]c2ccccc12)C(=O)N[C@@H](C)C(=O)N[C@@H](C)C(=O)N[C@@H](CC(C)C)C(=O)N[C@@H](C)C(=O)N[C@@H](C)C(=O)N[C@@H](C)C(=O)N[C@@H](CCCCN)C(=O)N[C@@H](CCCCN)C(=O)N[C@@H](CCCCN)C(=O)N[C@@H](CCCCN)C(N)=O` [[C25]] (H-KKAAALAAAAACAAWAALAAAKKKK-NH2; N-terminus assumed), in data set [1], the “MIC S. epidermidis C621” value is greater than 32 µM and the “MIC C621 (active/inactive)” value is “+”. Also, in data set [2], the “MIC C. xerosis C875” value turned out to be 1 µM (≈ 2.37 µg/mL) and the “MIC C875 (active/inactive)” value is “+”. Besides, the “MIC C498 (active/inactive)” value in data set [3] is listed as “+”. Further, the “MIC C500 (active/inactive)” value in data set [4] was “+”. Besides, in data set [5], the “Mean residue hydropathy” value turned out to be 0.78, the Hydropathy was determined as 2.49, the “Average Hydrophobicity of Core Sequence” value was 1.02 and the “Mean Core segment Hydrophobicity” value was found to be 1.02. For the same compound, in the data set on E. coli UB1005, the “MIC E. coli UB1005” value stood at 16 µM (≈ 37.9 µg/mL). The “MIC E. coli DC2” value with E. coli DC2 was found to be 8 µM (≈ 18.9 µg/mL).

For the compound `CSCC[C@H](NC(=O)[C@H](C)NC(=O)[C@H](C)NC(=O)[C@H](C)NC(=O)[C@H](CCCCN)NC(=O)[C@@H](N)CCCCN)C(=O)N[C@@H](C)C(=O)N[C@@H](C)C(=O)N[C@@H](C)C(=O)N[C@@H](C)C(=O)N[C@@H](C)C(=O)N[C@@H](CCSC)C(=O)N[C@@H](C)C(=O)N[C@@H](C)C(=O)N[C@@H](Cc1c[nH]c2ccccc12)C(=O)N[C@@H](C)C(=O)N[C@@H](C)C(=O)N[C@@H](CCSC)C(=O)N[C@@H](C)C(=O)N[C@@H](C)C(=O)N[C@@H](C)C(=O)N[C@@H](CCCCN)C(=O)N[C@@H](CCCCN)C(=O)N[C@@H](CCCCN)C(=O)N[C@@H](CCCCN)C(N)=O` [[M25]] (H-KKAAAMAAAAAMAAWAAMAAAKKKK-NH2; N-terminus assumed), in data set [1], the “MIC S. epidermidis C621” value is 16 µM (≈ 38.9 µg/mL) and the “MIC C621 (active/inactive)” value was “+”. In data set [2], the “MIC C. xerosis C875” value was determined as 0.5 µM (≈ 1.22 µg/mL) and the “MIC C875 (active/inactive)” value is “+”. For the same compound, the “MIC C498 (active/inactive)” value in data set [3] is listed as “+”. In addition, the “MIC C500 (active/inactive)” value in data set [4] is given as “+”. Also, in data set [5], the “Mean residue hydropathy” value is listed as 0.90, the Hydropathy is reported as 3.23, the “Average Hydrophobicity of Core Sequence” value is 0.89 and the “Mean Core segment Hydrophobicity” value is 0.90. Further, in the data set on E. coli UB1005, the “MIC E. coli UB1005” value is greater than 32 µM. In the data set with E. coli DC2, the “MIC E. coli DC2” value was 32 µM (≈ 77.8 µg/mL).
